Measurements from US11155582B2, “Antiviral peptide and use thereof” (priority 2018, dated 2021).
Where “and” joins values, the source holds several entries; their conditions need not be identical. Equal values may be shown once. Where no end group is shown, it is not given here.

Columns and labels:
VSV [1] = type: cell-based, Vesicular stomatitis virus (VSV)
VSV [2] = type: cell-based, Vesicular stomatitis virus (VSV); remark: listed apart in the source

Substance	Amount of virus in culture supernatant (VSV [1])	observation field occupied by a monolayer of living cells (VSV [2])
FFFIIGLIIGLFLVLRVGIHLKKRTLRKNDRKKR-NH2 [Sample 2]	4.7 Log10 TCID 50/mL and 3.5 Log10 TCID 50/mL	–
MAIVGIVLLIVVTFLAIKTKKRTLRKNDRKKR-NH2 [Sample 1]	4.4 Log10 TCID 50/mL and 5 Log10 TCID 50/mL	–
VLAVIIGFVILMFLIKLIGVLKKRTLRKNDRKKR-NH2 [Sample 3]	4.7 Log10 TCID 50/mL and 4.5 Log10 TCID 50/mL	≥ 90%
